Laboratory results from patent US9363996B2, “Compositions and method for blocking ethylene response in field crops using 3-(cy-clopropyl-l-enyl)-propanoic salt” (Yissum Research Development Company of the Hebrew …, priority 2009, dated 2016).

Experiments:
wheat plants [1] = assay: Ethephon-induced chlorophyll degradation in wheat leaves, glumes and chaffs; format: in vivo, wheat (Triticum turgidum var. 'Gdera'); settings: for Ethephon-induced decrease in the content of chlorophyll: WS-CPD 45 μg mL^−1
Experimental: (1) Abscission—This is a very sensitive model system for studying the effects of plant hormones. Ethylene induces the process of abscission, while auxin delays it. In the laboratory the experimental system is based on plant organ explants, which include the abscission zone. Abscission is induced by exposure to ethylene and at the termination of the experiment the number of abscised organs, usually either leaf blades or petioles are counted and the fraction of abscission is calculated. In the case of fruit, the decrease in fruit retention force is analyzed. In cotton, when WS-CPD (the ethylene-action antagonist herein disclosed) is tested, the whole plants or explants are pretreated by spraying with the antagonist, dissolved in a phosphate buffer solution (10-20 mM, pH 7.0) including 0.1% commercially available Kinetic™ as surfactant, and left to incubate for a predetermined time, usually between 6 and 24 h. The plants or explants are then further exposed for 24 h to ethylene gas (5 to 20 μL L^−1). The plants or explants are then ventilated and incubated for the required time under controlled conditions. At the end of the experiment the percentage of abscission is determined. (2) Chlorophyll degradation—This is a standard model for studying senescence. Plant material (whole plants, excised leaves or leaf discs) are pretreated. In cotton, tobacco and wheat, when WS-CPD is tested, the whole plants or explants are pretreated by spraying with the antagonist, dissolved in phosphate buffer solution (10-20 mM, pH 7.0) including 0.1% commercially available Kinetic™ surfactant, and left to incubate for a predetermined time, usually between 6 and 241. The plants or explants are then further exposed for 24 h to ethylene gas (1 to 100 μL L^−1), or sprayed with Ethephon™ (wheat; 250 to 750 μL L^−1). The plants or explants are then ventilated and incubated for the required time under controlled conditions. At the end of the experiment a dimethylsulfoxide (DMSO) extract of the plant tissue is prepared, and the chlorophyll content of the extract is determined by spectrophotometric analysis. The chlorophyll content is reported either on a fresh, dry weight basis, or on a surface area basis. (3) Epinasty—This is also one of the classical methods for studying ethylene effects in plants. The extent of ethylene-induced epinasty of leaves is determined by measuring the change of the angle between the petiole and the stem shoot or blade. After exposure of the intact plant to ethylene, the upright grown leaves bend downward. The increase in the angle values (degrees) between petiole and the stem is used as a measure of the effect of the ethylene. When WS-CPD is tested on cotton and wheat plants, the whole plants are pretreated by spraying with the antagonist dissolved in phosphate buffer solution (10-20 mM, pH 7.6) including 0.1% Kinetic™ as surfactant, and left to incubate for a predetermined time, usually between 6 and 24 h. The plants are then further exposed for 24 h to ethylene gas (cotton, 5 to 10 μL L^−1), or sprayed with Ethephon™ (wheat, 250 to 750 μL L^−1). The plants are then ventilated and incubated for the required time under controlled conditions. The epinastic effect is expressed by measuring the degree values of the downward curvature between the blade and petiole (cotton, FIGS. 1-3) or between the blade and the stem (wheat, FIGS. 31 and 32). (4) Wheat Grain yield—This is a common test of the effects of exposure of monocot plants either to environmental stresses such as drought that induce senescence by increasing endogenous ethylene production. Excessive internal or external ethylene will accelerate senescence which will lead to reduced grain yield. In this project the intact plants were grown in the greenhouse up to the spike hading at milky stage I and II. The plants were then sprayed with the dissolved WS-CPD in phosphate buffer solution (10 mM, pH 7.6) including 0.1% Kinetic™ as surfactant. Young Cotton Seedlings […]

Solubility in water = format: physicochemical; settings: 25° C.
Experimental: WS-CPD is highly soluble in water at 25° C. (≧400 mg mL^−1), FIG. 63. Upon heating, decomposition without melting occurs, beginning at 265-270° C.

wheat seedlings = assay: Third leaf growth of young wheat seedlings exposed to ethylene; format: in vivo, wheat (Triticum turgidum var. 'Gdera')
wheat plants [2] = assay: Wheat grain yield, 450 ml pots in peat-based medium; format: in vivo, wheat (Triticum turgidum var. 'Gdera'); settings: one spray WS-CPD 120 μl L^−1 (so in the source) at milky stage II
Experimental: In another experiment the wheat plants were grown in 450 ml pots in a peat-based medium. The plants were sprayed once with WS-CPD (120 μl L^−1) at milky stage II, 7 months after germination. The results confirmed previous results, showing a −15% increase in grain yield over the weight of the grains of untreated control plants (FIG. 54). This is also evident when calculating the distribution of grain weight (as percentage of the total number of grains) and comparing them with grain weight distribution from control plants.

wheat plants [3] = assay: Wheat grain yield at harvest, greenhouse, sandy soil, natural conditions; format: in vivo, wheat (Triticum turgidum var. 'Gdera')
wheat plants [4] = assay: Ethephon-induced flag leaf epinasty of wheat plants after spike heading; format: in vivo, wheat (Triticum turgidum var. 'Gdera'); settings: WS-CPD 135 and 415 μg mL^−1 pretreatment; Ethephon 750 μL L^−1
Experimental: (1) Abscission—This is a very sensitive model system for studying the effects of plant hormones. Ethylene induces the process of abscission, while auxin delays it. In the laboratory the experimental system is based on plant organ explants, which include the abscission zone. Abscission is induced by exposure to ethylene and at the termination of the experiment the number of abscised organs, usually either leaf blades or petioles are counted and the fraction of abscission is calculated. In the case of fruit, the decrease in fruit retention force is analyzed. In cotton, when WS-CPD (the ethylene-action antagonist herein disclosed) is tested, the whole plants or explants are pretreated by spraying with the antagonist, dissolved in a phosphate buffer solution (10-20 mM, pH 7.0) including 0.1% commercially available Kinetic™ as surfactant, and left to incubate for a predetermined time, usually between 6 and 24 h. […] At the end of the experiment the percentage of abscission is determined. […] At the end of the experiment a dimethylsulfoxide (DMSO) extract of the plant tissue is prepared, and the chlorophyll content of the extract is determined by spectrophotometric analysis. […] The extent of ethylene-induced epinasty of leaves is determined by measuring the change of the angle between the petiole and the stem shoot or blade. […]

solubility (Solubility in water): ≥ 400 mg/mL
Structure (SMILES): O=C([O-])CCC1=CC1.[Na+] [WS-CPD, 3-cyclopropyl-1-enyl-propanoic sodium salt]
Ethephon-induced chlorophyll degradation in the glumes and chaffs (wheat plants [1]; WS-CPD 62 μg mL^−1, Ethephon 250 μL L^−1): completely reversed
decrease of chlorophyll content in the flag leaf (wheat plants [1]; WS-CPD 312 μg mL^−1, Ethephon 250 μL L^−1, milky stage I): almost completely antagonized
chlorophyll decrease induced by Ethephon (wheat plants [1]; WS-CPD 415 μg mL^−1, Ethephon 750 μL L^−1, both types of leaves, milky stage I): only slightly antagonized
Ethephon-induced decrease of chlorophyll (wheat plants [1]; WS-CPD 12 to 62 μg mL^−1, milky stage I, mainly flag leaf, also leaf II): significantly reduced
effect on chlorophyll in leaves treated with Ethephon (wheat plants [1]; WS-CPD 15 to 135 μg L^−1 (so in the source), Ethephon 750 μL L^−1, milky stage II): not effective
decrease in the chlorophyll titer in the treated spike-chaffs (wheat plants [1]; WS-CPD 15 to 135 μg L^−1 (so in the source), Ethephon 750 μL L^−1, milky stage II, insignificant): 3%
Ethephon-induced decrease in the content of chlorophyll (wheat plants [1]; chaffs, Ethephon 750 μL L^−1): markedly antagonized
increase of chlorophyll content above control untreated plants (wheat plants [1]; chaffs, WS-CPD 62 μg mL^−1, Ethephon 250 μL L^−1): 10%
Ethephon-induced decrease in the content of chlorophyll (wheat plants [1]; glumes, Ethephon 750 μL L^−1): much less effective
increase of chlorophyll content above control untreated plants (wheat plants [1]; glumes, WS-CPD 62 μg mL^−1, Ethephon 250 μL L^−1): 60%
reversal of the inhibitory effect of ethylene on third leaf growth (wheat seedlings; WS-CPD 40 μg mL^−1, 1.6 ethylene): 100%
inhibitory effect of ethylene on third leaf growth (wheat seedlings; WS-CPD 4 and 40 μg mL^−1 spray at day 10, ethylene 1.6 to 40 μg L^−1 (so in the source) 24 h later for two days): effectively antagonized
increase in grain yield over untreated control plants (wheat plants [2]): −15%
effect of repeating sprays after stage II on yield (wheat plants [3]; WS-CPD 120 μg mL^−1, two to four sprays at 8 to 10 days intervals): no advantage
grains weighting less than 35 mg/grain in the spikes of the treated plants (wheat plants [3]; WS-CPD 120 μg mL^−1, untreated plants more than 30% below this weight): almost no grains
total yield increase (wheat plants [3]; one spray WS-CPD 120 μg mL^−1 at milky stage I, dry grain at harvest): ca. 18%
Ethephon-induced flag leaf epinasty (wheat plants [4]): partly protected
